From patent US10590128B2, “6,7,8,9-tetrahydro-5H-pyrido[2,3-d]azepine dopamine D3 ligands” (Pfizer Inc., priority 2016, dated 2020)

How the values were obtained:
[1] = target: human dopamine D3 receptor (hD3R) (Homo sapiens, UniProt P35462); test: Human D3 receptor binding assay ([^3H]-7-OH-DPAT); conditions: CHO cells expressing hD3R, geometric mean of 2-5 determinations unless marked b (single determination), read-out: hD3 in CHO cells Ki
Description: (§1) Human D2 Receptor and Human D3 Receptor Binding Assays:
(§2) These determined ligand and tissue concentrations were utilized in time course studies to determine linearity and equilibrium conditions for binding. […] The hD2R assay buffer contains 50 mM Tris (pH 7.4 @ 37° C.), 100 mM NaCl and 1 mM MgCl2. The hD3R assay buffer consists of 50 mM Tris (pH 7.4 at 37° C.), 120 mM NaCl, 5 mM MgCl2, 5 mM KCl and 2 mM CaCl2. Competitive binding experiments were initiated by the addition of 200 μL of the respective cell homogenate to 96-well plates containing […] test drugs (10 concentrations using ½ log dilutions) and 50 μL of ^3H-radioligand for a final volume of 250 μL. Non-specific binding was determined by radioligand binding in the presence of a saturating concentration of Haldol (10 μM). After the 20 minute incubation at 37° C., assay samples were rapidly filtered through Unifilter-96 GF/B PEI-coated filter plates and rinsed with ice-cold 50 mM Tris buffer (pH 7.4 at 4° C.). […] The IC50 value (concentration at which 50% inhibition of specific binding occurs) was calculated by linear regression of the concentration-response data in ActivityBase. Ki values were then calculated according to the Cheng-Prusoff equation:
(§3) [formula] where [L]=concentration of free radioligand and Kd=dissociation constant of radioligand for D3 receptor or D2 receptor.

[2] = target: human dopamine D2 receptor (hD2R) (Homo sapiens, UniProt P14416); test: Human D2 receptor binding assay ([^3H]-Spiperone); conditions: CHO cells expressing hD2R, geometric mean of 2-5 determinations unless marked b (single determination)
Description: as §1, §2, §3

Sequence of human dopamine D3 receptor (hD3R) (P35462 whole entry): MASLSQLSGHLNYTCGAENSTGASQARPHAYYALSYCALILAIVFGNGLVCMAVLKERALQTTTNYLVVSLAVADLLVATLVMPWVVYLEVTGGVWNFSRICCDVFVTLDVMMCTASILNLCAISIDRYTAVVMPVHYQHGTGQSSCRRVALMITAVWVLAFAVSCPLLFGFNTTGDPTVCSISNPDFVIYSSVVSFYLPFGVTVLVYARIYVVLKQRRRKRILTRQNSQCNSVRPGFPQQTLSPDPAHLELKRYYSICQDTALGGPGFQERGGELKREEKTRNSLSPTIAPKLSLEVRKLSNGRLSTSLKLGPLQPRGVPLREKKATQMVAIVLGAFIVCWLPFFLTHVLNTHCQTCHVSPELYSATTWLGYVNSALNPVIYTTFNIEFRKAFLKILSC
Sequence of human dopamine D2 receptor (hD2R) (P14416 whole entry): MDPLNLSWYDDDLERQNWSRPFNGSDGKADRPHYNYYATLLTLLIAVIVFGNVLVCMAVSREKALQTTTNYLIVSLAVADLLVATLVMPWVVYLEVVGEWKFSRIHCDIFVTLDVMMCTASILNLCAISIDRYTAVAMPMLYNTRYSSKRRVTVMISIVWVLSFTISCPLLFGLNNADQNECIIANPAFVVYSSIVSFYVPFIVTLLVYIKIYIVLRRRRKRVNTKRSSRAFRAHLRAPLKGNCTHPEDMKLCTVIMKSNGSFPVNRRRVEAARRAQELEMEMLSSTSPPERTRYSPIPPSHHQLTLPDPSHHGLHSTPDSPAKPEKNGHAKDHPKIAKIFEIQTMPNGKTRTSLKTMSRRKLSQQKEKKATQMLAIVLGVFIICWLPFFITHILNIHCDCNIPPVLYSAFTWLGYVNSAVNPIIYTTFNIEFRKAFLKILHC

Question: With `CCN1CCc2cc(NS(=O)(=O)c3ccc(C4(F)CCCCC4)nc3)c(OC)nc2CC1` [Example 112, N-(7-ethyl-2-methoxy-6,7,8,9-tetrahydro-5H-pyrido[2,3-d]azepin-3-yl)-6-(1-fluorocyclohexyl)pyridine-3-sulfonamide] as the compound, how does the Ki [1] read?
Answer: The Ki was 0.00236 µM.

Question: And the Ki [2]?
Answer: Its Ki is 0.0457 µM.

Question: With `COc1nc2c(cc1NS(=O)(=O)c1cnc(OC3CCC3)c(C)c1)CCN(C)CC2` [Example 126, 6-(cyclobutyloxy)-N-(2-methoxy-7-methyl-6,7,8,9-tetrahydro-5H-pyrido[2,3-d]azepin-3-yl)-5-methylpyridine-3-sulfonamide] as the compound, how does the Ki [1] read?
Answer: The Ki was 0.00185 µM.

Question: And the Ki [2]?
Answer: The Ki was 0.0109 µM.

Question: `COc1nc2c(cc1NS(=O)(=O)c1ccc(C3CC(F)CCO3)cc1)CCN(C)CC2` (single isomer, unassigned) [Example 106, 4-(4-fluorotetrahydro-2H-pyran-2-yl)-N-(2-methoxy-7-methyl-6,7,8,9-tetrahydro-5H-pyrido[2,3-d]azepin-3-yl)benzenesulfonamide] was tested. Which Ki [1] did it give?
Answer: The Ki was 0.00431 µM.

Question: And the Ki [2]?
Answer: Its Ki is 0.32 µM.

Question: For `CCN1CCc2cc(NS(=O)(=O)c3ccc(C4CCOC4)cc3)c(OC)nc2CC1` (centres unmarked) [Example 71, N-(7-ethyl-2-methoxy-6,7,8,9-tetrahydro-5H-pyrido[2,3-d]azepin-3-yl)-4-(tetrahydrofuran-3-yl)benzenesulfonamide], which Ki [1] is on record?
Answer: The Ki was 0.00484 µM.

Question: What about the Ki [2] of the same compound?
Answer: Its Ki is 0.754 µM.

Question: Which Ki [1] does the source give for `COc1nc2c(cc1NS(=O)(=O)c1ccc([C@]3(F)C[C@@H](C)C3)nc1)CCN(C)CC2` [Example 25, 6-(cis-1-fluoro-3-methylcyclobutyl)-N-(2-methoxy-7-methyl-6,7,8,9-tetrahydro-5H-pyrido[2,3-d]azepin-3-yl)pyridine-3-sulfonamide] here?
Answer: Its Ki is 0.00507 µM.

Question: And the Ki [2]?
Answer: Its Ki is 0.542 µM.

Question: Which Ki [1] does the source give for `COc1nc2c(cc1NS(=O)(=O)c1ccc(C3CC(F)CCO3)cc1)CCN(C)CC2` (single isomer, unassigned; diastereomer-1) [Example 108, 4-(4-fluorotetrahydro-2H-pyran-2-yl)-N-(2-methoxy-7-methyl-6,7,8,9-tetrahydro-5H-pyrido[2,3-d]azepin-3-yl)benzenesulfonamide, diastereomer-1] here?
Answer: The Ki was 0.0151 µM.

Question: And the Ki [2]?
Answer: Its Ki is 1.93 µM.

Question: Which results are given for `COc1nc2c(cc1NS(=O)(=O)c1ccc(O[C@@H]3CCOC3)cc1)CCN(C)CC2` [Example 37, N-(2-methoxy-7-methyl-6,7,8,9-tetrahydro-5H-pyrido[2,3-d]azepin-3-yl)-4-[(3R)-tetrahydrofuran-3-yloxy]benzenesulfonamide]?
Answer: Ki [1]: 0.00321 µM; Ki [2]: 0.26 µM

Question: Which results are given for `COc1nc2c(cc1NS(=O)(=O)c1ccc(OC3CCCC3)nc1C)CCN(C)CC2` [Example 128, 6-(cyclopentyloxy)-N-(2-methoxy-7-methyl-6,7,8,9-tetrahydro-5H-pyrido[2,3-d]azepin-3-yl)-2-methylpyridine-3-sulfonamide]?
Answer: Ki [1]: 0.00124 µM; Ki [2]: 0.00407 µM

Question: What does the source list for `CCO[C@H]1C[C@@H](c2ccc(S(=O)(=O)Nc3cc4c(nc3OC)CCN(CC)CC4)cc2)C1` [Example 120, 4-(cis-3-ethoxycyclobutyl)-N-(7-ethyl-2-methoxy-6,7,8,9-tetrahydro-5H-pyrido[2,3-d]azepin-3-yl)benzenesulfonamide]?
Answer: Ki [1]: 0.00128 µM; Ki [2]: 0.054 µM

Question: With `COc1nc2c(cc1NS(=O)(=O)c1ccc([C@@H]3CCCCO3)c(C)c1)CCN(C)CC2` [Example 105, N-(2-methoxy-7-methyl-6,7,8,9-tetrahydro-5H-pyrido[2,3-d]azepin-3-yl)-3-methyl-4-[(2S)-tetrahydro-2H-pyran-2-yl]benzenesulfonamide] as the compound, how does the Ki [1] read?
Answer: The Ki was 0.00046 µM.

Question: What about the Ki [2] of the same compound?
Answer: Its Ki is 0.0261 µM.

Question: Which results are given for `COc1nc2c(cc1NS(=O)(=O)c1ccc(Cl)cc1)CCN(C)CC2` [Example 27, 4-chloro-N-(2-methoxy-7-methyl-6,7,8,9-tetrahydro-5H-pyrido[2,3-d]azepin-3-yl)benzenesulfonamide]?
Answer: Ki [1]: 0.00326 µM; Ki [2]: 0.4 µM

Question: With `CCOC1CC(c2ccc(S(=O)(=O)Nc3cc4c(nc3OC)CCN(CC)CC4)cc2)C1` (stereo not drawn) [Example 121, 4-(trans-3-ethoxycycyclobutyl)-N-(7-ethyl-2-methoxy-6,7,8,9-tetrahydro-5H-pyrido[2,3-d]azepin-3-yl)benzenesulfonamide] as the compound, how does the Ki [1] read?
Answer: Its Ki is 0.00253 µM.

Question: What about the Ki [2] of the same compound?
Answer: Its Ki is 0.0398 µM.

Question: Which results are given for `COc1nc2c(cc1NS(=O)(=O)c1ccc([C@H]3C[C@H](OCCF)C3)cc1)CCN(C)CC2` [Example 3, 4-[trans-3-(2-Fluoroethoxy)cyclobutyl]-N-(2-methoxy-7-methyl-6,7,8,9-tetrahydro-5H-pyrido[2,3-d]azepin-3-yl)benzenesulfonamide]?
Answer: Ki [1]: 0.00156 µM; Ki [2]: 0.0859 µM

Question: With `COc1nc2c(cc1NS(=O)(=O)c1ccc(C3CCCOC3)cc1)CCN(C)CC2` (single isomer, unassigned) [Example 83] as the compound, how does the Ki [1] read?
Answer: The Ki was 0.00469 µM.

Question: And the Ki [2]?
Answer: The Ki was 0.436 µM.

Question: Which Ki [1] does the source give for `COc1nc2c(cc1NS(=O)(=O)c1ccc(C3CCOC(C)C3)cc1)CCN(C)CC2` (single isomer, unassigned) [Example 85] here?
Answer: Its Ki is 0.00324 µM.

Question: What about the Ki [2] of the same compound?
Answer: Its Ki is 0.303 µM.

Question: Which results are given for `COc1nc2c(cc1NS(=O)(=O)c1ccc(OC3CCCC3)nc1)CCN(CCCF)CC2` [Example 122, 6-(cyclopentyloxy)-N-[7-(3-fluoropropyl)-2-methoxy-6,7,8,9-tetrahydro-5H-pyrido[2,3-d]azepin-3-yl]pyridine-3-sulfonamide]?
Answer: Ki [1]: 0.00458 µM; Ki [2]: 0.128 µM

Question: What does the source list for `COc1nc2c(cc1NS(=O)(=O)c1ccc(C(C)OC)cc1)CCN(C)CC2` (centres unmarked) [Example 32, 4-(1-methoxyethyl)-N-(2-methoxy-7-methyl-6,7,8,9-tetrahydro-5H-pyrido[2,3-d]azepin-3-yl)benzenesulfonamide]?
Answer: Ki [1]: 0.00105 µM; Ki [2]: 0.204 µM

Question: How did the Ki [1] turn out when `COc1nc2c(cc1NS(=O)(=O)c1ccc([C@H]3CCCCO3)cc1)CCNCC2` [Example 9, N-(2-Methoxy-6,7,8,9-tetrahydro-5H-pyrido[2,3-d]azepin-3-yl)-4-[(2R)-tetrahydro-2H-pyran-2-yl]benzenesulfonamide] was run?
Answer: Its Ki is 0.00768 µM.

Question: What about the Ki [2] of the same compound?
Answer: Its Ki is 1.27 µM.

Question: Which Ki [1] does the source give for `COc1nc2c(cc1NS(=O)(=O)c1ccc(O[C@H]3CCOC3)cc1)CCN(C)CC2` [Example 91, N-(2-methoxy-7-methyl-6,7,8,9-tetrahydro-5H-pyrido[2,3-d]azepin-3-yl)-4-[(3S)-tetrahydrofuran-3-yloxy]benzenesulfonamide] here?
Answer: Its Ki is 0.00337 µM.

Question: And the Ki [2]?
Answer: Its Ki is 0.208 µM.

Question: Which results are given for `COc1nc2c(cc1NS(=O)(=O)c1ccc(C3CCCOC3)cc1)CCN(C)CC2` (racemic) [Example 77, N-(2-methoxy-7-methyl-6,7,8,9-tetrahydro-5H-pyrido[2,3-d]azepin-3-yl)-4-(tetrahydro-2H-pyran-3-yl)benzenesulfonamide]?
Answer: Ki [1]: 0.00452 µM; Ki [2]: 0.549 µM

Question: `CCN1CCc2cc(NS(=O)(=O)c3ccc([C@H]4C[C@H](OCCF)C4)cc3)c(OC)nc2CC1` [Example 20, N-(7-ethyl-2-methoxy-6,7,8,9-tetrahydro-5H-pyrido[2,3-d]azepin-3-yl)-4-[trans-3-(2-fluoroethoxy)cyclobutyl]benzenesulfonamide] was tested. Which Ki [1] did it give?
Answer: The Ki was 0.00174 µM.

Question: What about the Ki [2] of the same compound?
Answer: Its Ki is 0.116 µM.

Question: With `COc1nc2c(cc1NS(=O)(=O)c1ccc(C(C)C)cc1)CCN(C)CC2` [Example 54, N-(2-methoxy-7-methyl-6,7,8,9-tetrahydro-5H-pyrido[2,3-d]azepin-3-yl)-4-(propan-2-yl)benzenesulfonamide] as the compound, how does the Ki [1] read?
Answer: The Ki was 0.00038 µM.

Question: What about the Ki [2] of the same compound?
Answer: The Ki was 0.0144 µM.

Question: How did the Ki [1] turn out when `CCN1CCc2cc(NS(=O)(=O)c3ccc4c(c3)CCCO4)c(OC(C)C)nc2CC1` [Example 66, N-[7-ethyl-2-(propan-2-yloxy)-6,7,8,9-tetrahydro-5H-pyrido[2,3-d]azepin-3-yl]-3,4-dihydro-2H-chromene-6-sulfonamide] was run?
Answer: The Ki was 0.00878 µM.

Question: What about the Ki [2] of the same compound?
Answer: Its Ki is 1.46 µM.

Question: What does the source list for `CCO[C@H]1C[C@H](c2ccc(S(=O)(=O)Nc3cc4c(nc3OC)CCN(C)CC4)cc2)C1` [Example 22, 4-(trans-3-ethoxycyclobutyl)-N-(2-methoxy-7-methyl-6,7,8,9-tetrahydro-5H-pyrido[2,3-d]azepin-3-yl)benzenesulfonamide]?
Answer: Ki [1]: 0.00264 µM; Ki [2]: 0.0303 µM

Question: `CCCN1CCc2cc(NS(=O)(=O)c3ccc(C)cc3)c(OC)nc2CC1` [Example 26, N-(2-methoxy-7-propyl-6,7,8,9-tetrahydro-5H-pyrido[2,3-d]azepin-3-yl)-4-methylbenzenesulfonamide] was tested. Which Ki [1] did it give?
Answer: The Ki was 0.00243 µM.

Question: What about the Ki [2] of the same compound?
Answer: The Ki was 0.522 µM.

Question: With `COc1nc2c(cc1NS(=O)(=O)c1ccc(C3CCOC(C)(C)C3)cc1)CCN(C)CC2` (single isomer, unassigned) [Example 86] as the compound, how does the Ki [1] read?
Answer: The Ki was 0.0352 µM.

Question: What about the Ki [2] of the same compound?
Answer: The Ki was 1.39 µM.

Question: For `CCO[C@H]1C[C@@](F)(c2ccc(S(=O)(=O)Nc3cc4c(nc3OC)CCN(C)CC4)cc2)C1` [Example 132, 4-(trans-3-ethoxy-1-fluorocyclobutyl)-N-(2-methoxy-7-methyl-6,7,8,9-tetrahydro-5H-pyrido[2,3-d]azepin-3-yl)benzenesulfonamide], which Ki [1] is on record?
Answer: The Ki was 0.00223 µM.

Question: What about the Ki [2] of the same compound?
Answer: The Ki was 0.367 µM.

Question: `CCN1CCc2cc(NS(=O)(=O)c3ccc(C4(C)CCOCC4)cc3)c(OC)nc2CC1` [Example 69, N-(7-ethyl-2-methoxy-6,7,8,9-tetrahydro-5H-pyrido[2,3-d]azepin-3-yl)-4-(4-methyltetrahydro-2H-pyran-4-yl)benzenesulfonamide] was tested. Which Ki [1] did it give?
Answer: The Ki was 0.00477 µM.

Question: And the Ki [2]?
Answer: The Ki was 0.392 µM.
